Entries after “also recorded” stand apart in the source; their conditions may differ.
Assays:
CD11C and CD3 cells = assay: Interaction propensity of CD11C and CD3 cells in PBMC monolayers of a healthy donor; format: cell-based, human; conditions: PBMCs of a healthy donor, various concentrations, vs DMSO control
Description: FIG. 10: Measured interaction propensity expressed as Log 2 interaction score of CD11c and CD3 cells after treatment with the small molecule Crizotinib.
PBMCs of a healthy donor are treated with Crizotinib or DMSO control at various concentrations and the interaction propensity of CD11C and CD3 cells in non adherent cell monolayers obtained from treated and untreated combined sample according to WO 2016/046346 determined using the present invention.

B and NK cells = assay: Interaction propensity of B and NK cells in combined bone marrow and PBMCs of B-ALL patients; format: cell-based, human; conditions: B-ALL bone marrow plus PBMCs, vs PBS control
Excerpt: (§1) Bone marrow of a patients with B-cell acute lymphoblastic leukemia (B-ALL) and PBMCs of the same patient are combined, treated with Rituximab or PBS control and the interaction propensity of B and NK cells in non-adherent cell monolayers obtained from treated and untreated combined sample according to WO 2016/046346 determined using the present invention.

[1] = test system: B (CD19 positive) and T cells (CD3 positive); assay: Interaction propensity of B (CD19 positive) and T cells (CD3 positive) in PBMC monolayers; format: cell-based, human; conditions: PBMC monolayers (healthy blood), 48 h, over PBS control (0)
Excerpt: FIG. 9: Measured interaction propensity expressed as Log 2 interaction score of CD3 cells to […] with increasing concentrations of the clinically approved biologic drug Blinatumomab, with media alone as a control (0). Blinatumomab has a known mechanism of action bringing together cytotoxic or other T-cells and cancerous B-cells, through this interaction, Inducing cancer cell killing and thus reducing the cancerous burden.
(§2) PBMC monolayers were provided as described in WO 2016/046346, treated with blinatumomab or PBS control (0) for 48 h, fixed, stained with fluorescently labeled CD3 and CD19 antibodies and imaged using automated confocal microscopy. Subsequently, the interaction propensity of B (CD19 positive) and T cells (CD3 positive) in the provided non-adherent cell monolayers was determined using the present invention.

B and T cells = assay: Interaction propensity of B and T cells in combined bone marrow and PBMCs of B-ALL patients; format: cell-based, human; conditions: B-ALL bone marrow plus PBMCs, vs PBS control
Excerpt: as §1, with “blinatumomab” for “Rituximab”, “T” for “NK”

[2] = test system: CD10+ positive target cells and CD3+ T-cells; assay: Interaction of CD10 positive tumour cells with T-cells in pleural effusion/PBMC monolayers of a B-cell lymphoma patient; format: cell-based, human
Description: FIG. 12: interactions between CD10+ positive target cells, which according to pathology review comprised the tumour cells, and CD3+ T-cells were measured in a sample of a B-cell lymphoma patient in response to blinatumomab treatment for 24 h using the methods of the present invention and quantified as an interaction score. […] The different graphs show different amounts of cells isolated from pleural effusion (PE) of the patient mixed with different amounts of matched PBMCs from the same patient.
Pleural effusion from a patient with a B-cell lymphoma was collected by gradient density centrifugation. This pleural effusion consisted of a mixture of cell types found in bone marrow and PBMCs having migrated to the pleural cavity with concomitant fluid build-up and contained cancer as well as healthy cells. A matched sample of blood was also purified over Lymphoprep gradient. Cells obtained from the pleural effusion were titrated against cells from the matched PBMC samples and monolayers prepared according to WO2016/046346. Monolayers were treated with different concentrations of blinatumomab and the interaction of tumour cell populations previously determined to be CD10 positive by a pathologist with effector T-cells determined using the methods described in the present invention.

[3] = test system: B (CD19 positive) and NK cells (CD58 positive); assay: Interaction propensity of B (CD19 positive) and NK cells in PBMC monolayers; format: cell-based, human; conditions: 48 h, over PBS control (0)
Excerpt: FIG. 11: Measured interaction propensity expressed as Log 2 interaction score of CD19 cells to CD56 cells with increasing concentrations of the clinically approved biologic drug Rituxidmab, with media alone as a control (0). Rituximab has a known mechanism of action bringing together NK-cells and cancerous B-cells, and through this interaction inducing cancer, reducing the cancerous burden.
as §2, with “rituximab” for “blinatumomab”, “CD56” for “CD3”, “NK” for “T”, “([…]” for “(CD3”

B-cell lymphoma = assay: Clinical response of the B-cell lymphoma patient to treatment; format: in vivo, human; conditions: one B-cell lymphoma patient given the drug
[4] = patients not responding clinically
[5] = patients responding to the drug

## C[C@@H](Oc1cc(-c2cnn(C3CCNCC3)c2)cnc1N)c1c(Cl)ccc(F)c1Cl [Crizotinib]
CD11C and CD3 cells
  interaction of DCs and T-cells as indicated by the interaction score: increase

## Rituximab: anti-CD20 antibody that links B and NK cells, inducing NK cells to kill B cells
B and NK cells; [4]
  interaction propensity between B and NK cells: do not exhibit this increase
B and NK cells; [5]
  interaction propensity between B and NK cells: increase

## blinatumomab: bispecific antibody in BITE format that cross links B and T cells inducing T cells to kill B cells
[1]
  interaction propensity between B and T cells: increases
[1]; listed as blinatomumab
  interaction propensity between B and T cells: increase
B and T cells; [4]
  interaction propensity between B and T cells: do not exhibit this increase
B and T cells; [5]
  interaction propensity between B and T cells: increase
[2]; B-cell lymphoma patient sample, ex vivo treatment
  fraction of tumour B-cells: did not change significantly
[2]; B-cell lymphoma patient, pleural effusion cells mixed with matched PBMCs, different concentrations, 24 h
  interaction of CD10 positive tumour cells with effector T-cells (interaction score): this was not the case for this patient; also recorded: no such interaction change was observed
[3]
  interaction propensity between B and NK cells: increase
B-cell lymphoma
  clinical response of the patient: not to respond; also recorded: transient and weak response
